Values after ≈ are worked out from the molar mass of the structure shown.
Legend:
[1] = Acute toxicity in mice was determined; type: organism-based; conditions: mouse, in vivo
Canis familiaris [2] = organism: Canis familiaris; test: Flea efficacy in dog; type: functional, Canis lupus familiaris
[3] = Lethal dose in dog was determined; type: toxicity, organism-based, Canis lupus familiaris; conditions: in vivo
[4] = Lethal dose in mouse was determined; type: toxicity, organism-based; conditions: in vivo
[5] = target: AF2 neuropeptide receptor; test: Compound was evaluated for inhibition of binding to Ascaris suum AF2 neuropeptide receptor
Mus musculus = test: Lethality in mouse, by administering the compound at 200 mg/kg; decreased toxicity; type: functional, organism-based; parameters: dose 200 mg/kg
Felis catus = test: Percent reduction of fleas on cats by topical application for 1 week; type: functional
[6] = Oral bioavailability in dog; type: ADME, organism-based, Canis lupus familiaris; conditions: in vivo
Canis familiaris [7] = organism: Canis familiaris; test: Minimum dose that cause toxicity in dog; type: functional, Canis lupus familiaris
Canis familiaris [8] = test: In vivo reduction of flea infestation was determined after an oral administration of 15 mg/kg in dog challenged with 100 fleas at day 0; type: functional, Canis lupus familiaris
Canis familiaris [9] = test: In vivo reduction of flea infestation was determined after an oral administration of 15 mg/kg in dog challenged with 100 fleas at day 4; type: functional, Canis lupus familiaris
Canis familiaris [10] = test: In vivo reduction of flea infestation was determined after an oral administration of 15 mg/kg in dog challenged with 100 fleas at day 6; type: functional, Canis lupus familiaris
Canis familiaris [11] = test: In vivo reduction of flea infestation was determined after an oral administration of 15 mg/kg in dog challenged with 100 fleas at day 8; type: functional, Canis lupus familiaris
[12] = Lethal concentration of compound was determined against fleas; conditions: pulicinae
Canis familiaris [13] = organism: Canis familiaris; test: Flea efficacy in dog
Equus caballus = test: Compound was evaluated for gastric acid suppression on intravenous administration of a single dose up to 7 hr; type: functional, Stomach

## CO[C@H]1C[C@H](O[C@H]2[C@H](C)O[C@@H](OC3/C(C)=C/CC4C[C@@H](C[C@]5(C=C[C@H](C)[C@@H](C(C)C)O5)O4)OC(=O)[C@@H]4C=C(C)[C@@H](O)[C@H]5OC/C(=C\C=C\[C@@H]3C)[C@]54O)C[C@@H]2OC)O[C@@H](C)[C@@H]1O (some centres not stated)
[1]
  LD50: 160 mg/kg

## C=C(C)[C@H]1C(=O)c2c3c(cc4c5c(n1c24)[C@@]1(C)C(CC[C@H]2[C@](C)(/C=C/C=C(\C)C(=O)N(C)CC)[C@@H](O)CC[C@@]21C)C5)C1=CC(C)(C)OC(C)(C)C1[C@@H]3O (some centres not stated)
Canis familiaris [2]
  Efficacy: 0.1 µg/mL

## CN1C(=O)[C@]23CC4CC(C)(C)[C@@]5(C[C@@]41CN2CC[C@@]3(C)O)C(=O)Nc1c5ccc2c1OC=CC(C)(C)O2 (some centres not stated)
[3]
  LD50: 0.5 mg/kg
[4]
  LD50: < 15 mg/kg

## N=c1sc(-c2ccccn2)nn1-c1c(Cl)cc(Cl)cc1Cl
[5]
  IC50: 3000 nM

## N#Cc1ccnc(-c2nn(-c3c(Cl)cc(C(F)(F)F)cc3Cl)c(=N)s2)c1
[5]
  IC50: 10 nM

## CC[C@@]12C(=O)N(C)[C@@]3(CCC(C)(C)[C@]4(CNc5c4ccc4c5OC=CC(C)(C)O4)C3)CN1CC[C@@]2(C)O
Mus musculus
  Lethality: decreased toxicity

## C/C=C(\C)C(=O)O[C@H]1C[C@@H](OC(C)=O)[C@@]2(C(=O)OC)CO[C@H]3[C@@H](O)[C@@](C)([C@]45O[C@@]4(C)[C@@H]4C[C@H]5O[C@@H]5OC=C[C@@]54O)[C@H]4[C@]1(CO[C@]4(O)C(=O)OC)[C@@H]32 [AZADIRACHTIN A]
Felis catus
  Reduction: 53%

## CC(C(=O)O)c1ccc2c(c1)[nH]c1ccc(Cl)cc12 (configuration not stated) [CARPROFEN]
[6]
  bioavailability: ~90%

## C=C(C)[C@H]1C(=O)c2c3c(cc4c5c(n1c24)[C@@]1(C)C(CC[C@H]2[C@](C)(/C=C/C=C(\C)C(=O)O)[C@@H](O)CC[C@@]21C)C5)C1=CC(C)(C)OC(C)(C)C1[C@@H]3O (some centres not stated) [NOD ACID A]
Canis familiaris [7]
  Dose: 0.006 mg/kg
Canis familiaris [8]
  Efficacy: 99%
Canis familiaris [9]
  Efficacy: 97%
Canis familiaris [10]
  Efficacy: 51%
Canis familiaris [11]
  Efficacy: 0%
[12]
  LC50: 0.68 µg/mL (≈ 1 µM)

## C=C(C)[C@H]1C(=O)c2c3c(cc4c5c(n1c24)[C@@]1(C)C(CC[C@H]2[C@](C)(/C=C/C=C(\C)C(=O)N4CCN(S(C)(=O)=O)CC4)[C@@H](O)CC[C@@]21C)C5)C1=CC(C)(C)OC(C)(C)C1[C@@H]3O (some centres not stated) [NODULISPORAMIDE]
Canis familiaris [13]
  Efficacy: 0.01 µg/mL

## COc1ccc2[nH]c([S+]([O-])Cc3ncc(C)c(OC)c3C)nc2c1 (configuration not stated) [OMEPRAZOLE]
Equus caballus
  Inhibition: >90%

— ChEMBL document CHEMBL1134352, “Perspectives in animal health: old targets and new opportunities” (J Med Chem, 2001)
